The supplement of paper PMC10307832

Legend:
Test in all cases: relative viability (nuclei count vs DMSO), 5 days (fraction); higher = more cells survive
[1] = compound: NC(=O)[C@@H](CCC(F)(F)F)N(Cc1ccc(-c2ncon2)cc1F)S(=O)(=O)c1ccc(Cl)cc1 [Avagacestat] + COc1cccc2cc(-c3nc([C@H]4CC[C@H](C(=O)O)CC4)n4ncnc(N)c34)[nH]c12 [OSI-027] (partner 0.5 µM)
How it was run: (§1)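 Values are medians from duplicate plates. Each reflects relative viability, defined as the nuclei count of treated wells over that of vehicle wells. Lung cancer cell lines in 1536-well plates were pin-tool dosed one day after seeding with one drug alone or with a fixed anchor-drug dose plus five library-drug doses (not always all listed) in √10 steps, then fixed, stained and imaged at 4× after 5 days.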

[2] = compound: NC(=O)[C@@H](CCC(F)(F)F)N(Cc1ccc(-c2ncon2)cc1F)S(=O)(=O)c1ccc(Cl)cc1 [Avagacestat] + C[C@@H](Oc1cc(-c2cnn(C3CCNCC3)c2)cnc1N)c1c(Cl)ccc(F)c1Cl [Crizotinib] (partner 1 µM)
How it was run: as §1

[3] = compound: NC(=O)[C@@H](CCC(F)(F)F)N(Cc1ccc(-c2ncon2)cc1F)S(=O)(=O)c1ccc(Cl)cc1 [Avagacestat] + N=C(N)NC(=N)NCCc1ccccc1 [Phenformin] (partner 250 µM)
How it was run: as §1

[4] = compound: NC(=O)[C@@H](CCC(F)(F)F)N(Cc1ccc(-c2ncon2)cc1F)S(=O)(=O)c1ccc(Cl)cc1 [Avagacestat] + CC(=O)Nc1cccc(-n2c(=O)n(C3CC3)c(=O)c3c(Nc4ccc(I)cc4F)n(C)c(=O)c(C)c32)c1 [Trametinib] (partner 0.02 µM)
How it was run: as §1

Cell Line | relative viability ([1]; first compound 0.08 µM) | relative viability ([1]; first compound 0.253 µM) | relative viability ([1]; first compound 0.8 µM) | relative viability ([1]; first compound 2.53 µM) | relative viability ([1]; first compound 8 µM) | relative viability ([2]; first compound 0.08 µM) | relative viability ([2]; first compound 0.253 µM) | relative viability ([2]; first compound 0.8 µM) | relative viability ([2]; first compound 2.53 µM) | relative viability ([2]; first compound 8 µM) | relative viability ([3]; first compound 0.08 µM) | relative viability ([3]; first compound 0.253 µM) | relative viability ([3]; first compound 0.8 µM) | relative viability ([3]; first compound 2.53 µM) | relative viability ([3]; first compound 8 µM) | relative viability ([4]; first compound 0.08 µM) | relative viability ([4]; first compound 0.253 µM) | relative viability ([4]; first compound 0.8 µM) | relative viability ([4]; first compound 2.53 µM) | relative viability ([4]; first compound 8 µM)
HCC-15 | 0.757 | 0.881 | 0.776 | 0.644 | 0.717 | 0.871 | 0.911 | 0.695 | 0.715 | 0.779 | 0.617 | 0.592 | 0.512 | 0.491 | 0.378 | 0.395 | 0.44 | 0.391 | 0.394 | 0.374
HCC-44 | 0.474 | 0.457 | 0.673 | 0.528 | 0.499 | 0.92 | 0.905 | 0.846 | 0.838 | 0.699 | 0.167 | 0.171 | 0.198 | 0.21 | 0.195 | 1.05 | 1.02 | 1.05 | 0.98 | 1.03
HCC-78 | 0.381 | 0.4 | 0.349 | 0.373 | 0.401 | 0.322 | 0.343 | 0.338 | 0.322 | 0.314 | 0.71 | 0.763 | 0.811 | 0.66 | 0.724 | 0.878 | 0.933 | 0.888 | 0.789 | 0.726
HCC-366 | 1.07 | 1.49 | 1.01 | 0.772 | 0.872 | 0.608 | 0.645 | 0.517 | 0.525 | 0.645 | 0.654 | 0.709 | 0.599 | 0.562 | 0.594 | 0.446 | 0.547 | 0.346 | 0.297 | 0.27
HCC-827 | 0.892 | 0.688 | 0.818 | 0.668 | 0.703 | 0.868 | 0.85 | 0.992 | 1.03 | 0.999 | 0.478 | 0.397 | 0.509 | 0.405 | 0.35 | 0.602 | 0.509 | 0.543 | 0.531 | 0.507
HOP-62 | 1.16 | 0.895 | 0.737 | 0.609 | 0.63 | 0.936 | 1.08 | 0.995 | 1.05 | 1.03 | 0.874 | 0.775 | 0.76 | 0.657 | 0.492 | 0.381 | 0.372 | 0.4 | 0.323 | 0.304
IA-LM |  |  |  |  |  | 1.98 | 1.36 | 1.09 | 0.879 | 1.1 |  |  |  |  |  |  |  |  |  | 
LC-2-ad | 0.796 | 0.898 | 0.855 | 0.795 | 0.739 | 0.548 | 0.367 | 0.458 | 0.435 | 0.391 | 0.577 | 0.651 | 0.713 | 0.602 | 0.554 | 0.99 | 0.965 | 0.962 | 0.911 | 0.856
